Here are results for 1 compound from publication PMC7522982, “PKIS deep dive yields a chemical starting point for dark kinases and a cell active BRSK2 inhibitor” (Scientific Reports, 2020).

The target in one assay is PDGFRB (Homo sapiens, UniProt P09619). Description: DiscoverX scanMAX competition binding assay. The arrangement: purchased Eurofins DiscoverX (scanMAX) / Eurofins enzymatic assays. An excerpt: (§1) Based on its narrow profile when tested in the combined Nanosyn and TSA panels, GW296115 was included in the recently released Kinase Chemogenomic Set (KCGS)[15]. All of the data presented in the Introduction section was collected prior to the inclusion of GW296115 in KCGS and everything that follows has been subsequently generated. Since its inclusion in PKIS and more recently KCGS, we have carried out a broader round of screening at DiscoverX. This profiling data has not been previously released and is reported here for the first time. GW296115 was profiled against 403 wild type human kinases at 1 μM using the DiscoverX scanMAX screening platform, which employs an active site-directed competition binding assay to quantitatively measure interactions between test compounds and kinases, [16]. GW296115 inhibited 25 kinases > 90% at 1 μM, resulting in a selectivity index (S10) of 0.062 at 1 μM (Table S2, Fig. 1C)[17].
Chain of PDGFRB (P09619 33-1106): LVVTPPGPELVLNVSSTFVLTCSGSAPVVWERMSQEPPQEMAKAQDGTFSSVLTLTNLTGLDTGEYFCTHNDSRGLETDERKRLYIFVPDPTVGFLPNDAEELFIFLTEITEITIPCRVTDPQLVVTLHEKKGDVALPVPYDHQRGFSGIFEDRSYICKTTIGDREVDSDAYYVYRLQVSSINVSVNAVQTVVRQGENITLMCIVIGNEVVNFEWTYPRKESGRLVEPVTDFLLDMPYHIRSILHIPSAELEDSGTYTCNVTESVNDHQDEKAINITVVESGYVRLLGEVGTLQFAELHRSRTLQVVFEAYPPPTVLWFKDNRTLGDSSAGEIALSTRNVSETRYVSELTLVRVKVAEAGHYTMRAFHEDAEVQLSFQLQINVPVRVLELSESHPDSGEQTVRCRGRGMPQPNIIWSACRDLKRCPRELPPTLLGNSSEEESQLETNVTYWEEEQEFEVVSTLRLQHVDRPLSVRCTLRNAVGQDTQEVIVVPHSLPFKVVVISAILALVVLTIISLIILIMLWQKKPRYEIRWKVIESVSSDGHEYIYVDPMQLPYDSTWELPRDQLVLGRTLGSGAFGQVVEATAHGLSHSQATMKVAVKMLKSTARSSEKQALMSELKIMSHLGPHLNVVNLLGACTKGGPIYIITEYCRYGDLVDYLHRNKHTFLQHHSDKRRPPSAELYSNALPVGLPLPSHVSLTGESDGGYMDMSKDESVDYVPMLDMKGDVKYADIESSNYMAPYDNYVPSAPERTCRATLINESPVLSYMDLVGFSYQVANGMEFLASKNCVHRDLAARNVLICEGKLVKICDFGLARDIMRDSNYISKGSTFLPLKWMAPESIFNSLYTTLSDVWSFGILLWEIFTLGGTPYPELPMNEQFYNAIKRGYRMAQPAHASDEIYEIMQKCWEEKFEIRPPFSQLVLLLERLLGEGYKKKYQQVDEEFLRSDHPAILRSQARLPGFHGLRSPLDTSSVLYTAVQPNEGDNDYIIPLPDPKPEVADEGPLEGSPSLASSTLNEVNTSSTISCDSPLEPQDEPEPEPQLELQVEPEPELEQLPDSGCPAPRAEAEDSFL
(§2) The scanMAX assays were performed at Eurofins DiscoverX Corporation as previously described.

The next assay deals with PIM3 (Homo sapiens, UniProt Q86V86). The assay can be described thus: DiscoverX scanMAX competition binding assay. More on the design: purchased Eurofins DiscoverX (scanMAX) / Eurofins enzymatic assays.
Description: as §1, §2

Another assay concerns the target MAP3K9/MLK1 (Homo sapiens, UniProt P80192). Description: DiscoverX scanMAX competition binding assay. The arrangement: purchased Eurofins DiscoverX (scanMAX) / Eurofins enzymatic assays.
Description: as §1, §2

For another assay, the target named is T1, MYLK3/caMLCK (Homo sapiens, UniProt Q32MK0).
T1 construct: purchased Eurofins DiscoverX Corporation
T1 sequence (Q32MK0 whole entry): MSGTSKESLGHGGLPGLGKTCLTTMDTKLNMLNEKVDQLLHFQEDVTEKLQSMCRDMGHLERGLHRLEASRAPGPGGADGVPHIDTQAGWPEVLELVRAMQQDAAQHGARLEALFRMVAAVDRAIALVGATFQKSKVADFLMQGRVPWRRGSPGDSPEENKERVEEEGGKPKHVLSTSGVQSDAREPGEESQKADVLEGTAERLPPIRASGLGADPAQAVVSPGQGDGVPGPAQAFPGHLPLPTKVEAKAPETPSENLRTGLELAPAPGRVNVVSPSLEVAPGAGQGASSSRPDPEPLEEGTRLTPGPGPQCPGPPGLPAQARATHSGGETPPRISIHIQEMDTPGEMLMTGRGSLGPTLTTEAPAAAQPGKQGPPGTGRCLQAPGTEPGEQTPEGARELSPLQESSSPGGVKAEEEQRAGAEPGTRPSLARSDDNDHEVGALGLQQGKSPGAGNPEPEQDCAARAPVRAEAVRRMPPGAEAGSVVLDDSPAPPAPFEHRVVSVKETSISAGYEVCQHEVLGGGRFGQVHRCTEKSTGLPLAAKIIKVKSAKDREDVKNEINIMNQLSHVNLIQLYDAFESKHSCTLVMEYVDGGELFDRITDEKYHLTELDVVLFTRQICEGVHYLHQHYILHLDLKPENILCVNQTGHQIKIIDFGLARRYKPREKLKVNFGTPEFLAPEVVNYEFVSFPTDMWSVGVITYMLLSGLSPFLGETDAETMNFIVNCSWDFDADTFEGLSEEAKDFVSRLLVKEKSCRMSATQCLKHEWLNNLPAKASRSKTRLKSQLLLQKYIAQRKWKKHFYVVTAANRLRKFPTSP
Description: DiscoverX scanMAX competition binding assay.
Description: as §1, §2

A further assay has as its target T2, RIOK3 (Homo sapiens, UniProt O14730).
T2 construct: purchased Eurofins DiscoverX (scanMAX) / Eurofins enzymatic assays
Description: DiscoverX scanMAX competition binding assay.
Description: as §1, §2

Assay [1] deals with T3, NLuc-BRSK2 in HEK293 cells (Homo sapiens, UniProt Q8IWQ3).
T3 construct: host or cells: HEK293
T3 sequence (Q8IWQ3 1-736): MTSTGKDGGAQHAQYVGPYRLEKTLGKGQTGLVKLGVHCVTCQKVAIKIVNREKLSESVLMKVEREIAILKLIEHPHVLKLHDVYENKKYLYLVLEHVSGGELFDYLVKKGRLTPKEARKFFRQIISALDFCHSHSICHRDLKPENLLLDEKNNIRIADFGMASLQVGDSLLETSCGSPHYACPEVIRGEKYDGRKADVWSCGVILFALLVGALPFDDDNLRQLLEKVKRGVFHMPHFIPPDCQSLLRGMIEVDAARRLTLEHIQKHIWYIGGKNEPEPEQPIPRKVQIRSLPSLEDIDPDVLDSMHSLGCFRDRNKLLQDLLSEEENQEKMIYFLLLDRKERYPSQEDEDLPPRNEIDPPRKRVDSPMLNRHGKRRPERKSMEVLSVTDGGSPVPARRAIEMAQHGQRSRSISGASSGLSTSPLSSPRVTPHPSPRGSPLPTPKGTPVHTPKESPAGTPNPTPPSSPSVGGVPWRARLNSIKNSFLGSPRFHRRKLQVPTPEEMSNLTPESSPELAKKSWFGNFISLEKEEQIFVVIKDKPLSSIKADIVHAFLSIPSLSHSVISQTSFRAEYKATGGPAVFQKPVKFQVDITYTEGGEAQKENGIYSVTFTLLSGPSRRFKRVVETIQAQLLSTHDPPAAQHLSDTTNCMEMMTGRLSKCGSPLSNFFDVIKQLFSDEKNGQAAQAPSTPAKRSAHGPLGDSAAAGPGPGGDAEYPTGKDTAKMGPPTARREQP
Description: BRSK2 NanoBRET cellular target engagement assay. Conditions: HEK293 cells transiently expressing NLuc-BRSK2; Tracer K5 1 μM; N = 3; read-out: BRSK2 NanoBRET data IC50. The class given is cell-based. The protocol: Our interest in illuminating BRSK2 biology motivated further investigation of the cellular target engagement of BRSK2 by GW296115 using our NanoBRET assay. BRSK2 kinase was fused to 19-kDa luciferase (NLuc) at its N-terminus (NLuc–BRSK2) which was transiently expressed in HEK293 cells, and then incubated with a cell-permeable fluorescent energy transfer probe (tracer)[23].
NanoBRET assays were executed as described previously. Constructs for BRSK2 NanoBRET measurements were provided in kind by Promega. The N-terminal Nanoluciferase (NL)/BRSK2 fusion (NL-BRSK2) was encoded in pFN32K expression vector, including flexible Gly-Ser-Ser-Gly linkers between NL and BRSK2 (Promega). For cellular BRSK2 NanoBRET target engagement experiments, a 10 μg/mL solution of DNA in Opti-MEM without serum (Gibco) was prepared with 9 μg/mL of Carrier DNA (Promega) and 1 μg/mL of NL-BRSK2 to achieve a total volume of 1.05 mL. To this solution was then added 31.5 μL of FuGENE HD (Promega) to form a lipid:DNA complex, mixed by inversion 8 times, and incubated at room temperature for 20 min. The resulting transfection complex (1.082 mL) was next gently mixed with HEK293 cells (21 mL) suspended at a density of 2 × 10^5 cells/mL in DMEM containing 10% FBS.
After 24 h, media was removed via aspiration and 85 μL of room temperature Opti-MEM without phenol red (Gibco) was added to each well. […] Next, 5 μL (20 × working stock of NanoBRET Tracer K5 [20 μM] in Tracer Dilution Buffer (Promega N291B)) was added to each well with the exception of the “no tracer” control wells. Test compounds were prepared as concentrated stock solutions in 100% DMSO (Sigma) at a concentration of 10 mM. […] A volume of 10 μL of tenfold test compound stock solutions (final assay concentration of […]) was added to each well. For “no compound” and “no tracer” control wells, 10 μL of Opti-MEM plus DMSO (9 μL Opti-MEM plus 1 μL DMSO) was added to each well to achieve a final concentration of 1% DMSO.
After 2 h, plates were returned to room temperature over the course of 15 min. […] Next, 50 μL of the 3 × substrate/extracellular NL inhibitor stock was added to each well.
Test compounds were evaluated at 8 concentrations in competition with NanoBRET Tracer K5 in HEK293 cells transiently expressing the NL-BRSK2 fusion protein. Raw milliBRET (mBRET) values were obtained by dividing the acceptor emission values (600 nm) by the donor emission values (450 nm), and then multiplying by 1000. Averaged control values were used to represent complete inhibition (no tracer control: transfected cells in Opti-MEM + DMSO; tracer control: transfected cells in Opti-MEM + DMSO + Tracer K5 only), and were plotted alongside the raw mBRET values. The data with n = 3 biological replicates was first normalized and then fit using Sigmoidal, 4PL binding curve in Prism Software (version 8, GraphPad, La Jolla, CA, USA).
Background: In BRET a luciferase serves as donor, and the signal depends on an acceptor being close.

Chain of MAP3K9/MLK1 (P80192 whole entry): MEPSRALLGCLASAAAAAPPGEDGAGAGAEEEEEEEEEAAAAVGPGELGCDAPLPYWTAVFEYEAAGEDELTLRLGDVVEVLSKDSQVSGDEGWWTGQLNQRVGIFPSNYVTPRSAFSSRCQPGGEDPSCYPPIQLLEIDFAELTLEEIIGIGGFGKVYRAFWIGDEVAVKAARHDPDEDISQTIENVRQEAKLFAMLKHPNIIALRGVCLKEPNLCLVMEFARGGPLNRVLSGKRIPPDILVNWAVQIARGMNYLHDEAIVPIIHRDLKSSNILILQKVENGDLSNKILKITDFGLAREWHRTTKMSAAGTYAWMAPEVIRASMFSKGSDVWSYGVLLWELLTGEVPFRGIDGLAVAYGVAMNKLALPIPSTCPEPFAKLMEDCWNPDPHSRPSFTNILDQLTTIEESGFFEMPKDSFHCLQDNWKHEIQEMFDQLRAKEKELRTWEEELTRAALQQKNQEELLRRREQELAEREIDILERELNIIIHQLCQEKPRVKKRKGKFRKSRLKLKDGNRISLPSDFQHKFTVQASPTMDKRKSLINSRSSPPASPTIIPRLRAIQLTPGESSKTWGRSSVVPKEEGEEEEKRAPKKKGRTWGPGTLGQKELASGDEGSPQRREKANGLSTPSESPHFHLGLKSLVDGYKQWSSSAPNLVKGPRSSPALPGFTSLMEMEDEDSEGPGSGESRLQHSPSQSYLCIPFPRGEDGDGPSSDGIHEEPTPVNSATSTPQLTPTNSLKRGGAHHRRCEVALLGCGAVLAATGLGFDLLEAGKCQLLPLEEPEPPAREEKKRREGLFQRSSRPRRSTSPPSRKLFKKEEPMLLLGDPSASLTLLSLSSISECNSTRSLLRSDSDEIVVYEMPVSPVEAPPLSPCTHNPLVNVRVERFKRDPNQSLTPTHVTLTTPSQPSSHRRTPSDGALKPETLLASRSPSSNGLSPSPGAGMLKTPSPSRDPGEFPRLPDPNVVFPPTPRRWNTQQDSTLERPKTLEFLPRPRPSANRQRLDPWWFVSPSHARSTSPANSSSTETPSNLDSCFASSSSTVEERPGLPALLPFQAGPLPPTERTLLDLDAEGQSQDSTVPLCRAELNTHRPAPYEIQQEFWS
T2 sequence (O14730 whole entry): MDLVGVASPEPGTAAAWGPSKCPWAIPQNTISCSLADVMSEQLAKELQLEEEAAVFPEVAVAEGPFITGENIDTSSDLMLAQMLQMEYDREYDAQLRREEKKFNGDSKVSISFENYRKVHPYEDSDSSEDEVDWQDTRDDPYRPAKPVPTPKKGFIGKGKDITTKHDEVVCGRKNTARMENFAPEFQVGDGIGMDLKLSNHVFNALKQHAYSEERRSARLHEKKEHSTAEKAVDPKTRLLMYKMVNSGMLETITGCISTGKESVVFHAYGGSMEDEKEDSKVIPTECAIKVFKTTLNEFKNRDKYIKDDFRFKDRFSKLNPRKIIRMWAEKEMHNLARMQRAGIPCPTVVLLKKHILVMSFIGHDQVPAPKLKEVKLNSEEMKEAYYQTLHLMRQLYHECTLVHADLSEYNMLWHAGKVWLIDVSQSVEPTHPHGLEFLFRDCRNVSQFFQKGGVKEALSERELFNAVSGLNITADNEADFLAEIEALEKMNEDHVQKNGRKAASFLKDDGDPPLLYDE

Regarding `COc1ccc2[nH]c3c4[nH]c5ccc(OC)cc5c4c4c(c3c2c1)C(=O)NC4=O` [GW296115], the inhibition at 1 µM is 99.8% at PDGFRB; 94.4% on PIM3; 95.1% at MAP3K9/MLK1; 80% on MYLK3/caMLCK; 89% at RIOK3. Moreover, the IC50 in assay [1] worked out at 107 ± 28 nM.

In general, inhibition refers to the drop in the measured response relative to a control, in per cent. A lower inhibition goes with little suppression. Usually IC50 stands for the concentration that gives 50% inhibition.
